# Test results as given in US12173005B1, “Pyrimido[1′,6′:1,5]pyrazolo[4,3-b][1,7]naphthyridine compounds as CK2 inhibitors” (KING FAISAL UNIVERSITY, priority 2023, dated 2024).
# Experiments:
# PC3 (prostate) = experiment: MTT in vitro cytotoxic activity assay, PC3; type: cell-based; settings: Homo sapiens; cells exposed for 96 hours; 50% inhibition of cell proliferation; read-out: Cytotoxicity activity IC50, PC3 (prostate)
# Protocol: (§1) Compounds 1-16 were screened for their in vitro cytotoxic activity utilizing a 3-(4,5-dimethyl-thiazol-2-yl)-2,5-diphenyltetrazolium bromide (MTT) assay against selected cancer human cell lines consisting of PC3 (prostate), HCT116 (colon), A375 (melanoma), H1299 (lung), MIAPaCa-2 (pancreas), HL60 (leukemia), MCF7 (breast), MDA-MB-231 (breast) (T. Mosmann, J. Immunol. Meth., 1983, 65, 55-63). The cells were cultured at 37° C. in RMPI1640 medium supplemented with 10% fetal bovine serum, 50 IU/mL penicillin, and 50 μg/mL streptomycin in a 5% CO2 incubator. All cells were sub-cultured 3 times/week by trypsinisation. Viable cells were seeded and allowed to adhere for 12 h before a test drug was added in 96-well plates at an initial density of 1.0×10^5 cells/mL. Tumor cell lines were separately exposed to various concentrations of the tested compounds followed by incubation at a temperature of 37° C. during 96 hours inside a medium of fresh RMPI 1640. Cells were subsequently incubated at 37° C. using MTT at 0.5 mg/mL during 4 hours. After removal of supernatant, formazan crystals were dissolved in isopropanol and the optical density was measured at 570 nm. CX-4945 was used as a positive control.
# HCT116 (colon) = experiment: MTT in vitro cytotoxic activity assay, HCT116; type: cell-based; settings: Homo sapiens, HCT-116; cells exposed for 96 hours; 50% inhibition of cell proliferation; read-out: Cytotoxicity activity IC50, HCT116 (colon)
# Protocol: as §1
# A375 (melanoma) = experiment: MTT in vitro cytotoxic activity assay, A375; type: cell-based; settings: Homo sapiens, A-375; cells exposed for 96 hours; 50% inhibition of cell proliferation; read-out: Cytotoxicity activity IC50, A375 (melanoma)
# Protocol: as §1
# H1299 (lung) = experiment: MTT in vitro cytotoxic activity assay, H1299; type: cell-based; settings: Homo sapiens, NCI-H1299; cells exposed for 96 hours; 50% inhibition of cell proliferation; read-out: Cytotoxicity activity IC50, H1299 (lung)
# Protocol: as §1
# MIAPaCa-2 (pancreas) = experiment: MTT in vitro cytotoxic activity assay, MIAPaCa-2; type: cell-based; settings: Homo sapiens, MIA PaCa-2; cells exposed for 96 hours; 50% inhibition of cell proliferation; read-out: Cytotoxicity activity IC50, MIAPaCa-2 (pancreas)
# Protocol: as §1
# HL60 (leukemia) = experiment: MTT in vitro cytotoxic activity assay, HL60; type: cell-based; settings: Homo sapiens, HL-60; cells exposed for 96 hours; 50% inhibition of cell proliferation; read-out: Cytotoxicity activity IC50, HL60 (leukemia)
# Protocol: as §1
# MCF7 (breast) = experiment: MTT in vitro cytotoxic activity assay, MCF7; type: cell-based; settings: Homo sapiens, cells exposed for 96 hours, 50% inhibition of cell proliferation, read-out: Cytotoxicity activity IC50, MCF7 (breast)
# Protocol: as §1
# MDA-MB-231 (breast) = experiment: MTT in vitro cytotoxic activity assay, MDA-MB-231; type: cell-based; settings: Homo sapiens, cells exposed for 96 hours, 50% inhibition of cell proliferation, read-out: Cytotoxicity activity IC50, MDA-MB-231 (breast)
# Protocol: as §1
# [1] = target: T1, recombinant human CK2 (RRββ-holoenzyme) (Homo sapiens, UniProt P68400); experiment: CK2 Kinase Assay (radiometric, [γ-33P] ATP); type: biochemical; settings: final ATP concentration 15 μM; 10 min at 30° C.; read-out: protein kinase CK2 IC50
# T1 construct: purchased Millipore
# T1 sequence (P68400 whole entry): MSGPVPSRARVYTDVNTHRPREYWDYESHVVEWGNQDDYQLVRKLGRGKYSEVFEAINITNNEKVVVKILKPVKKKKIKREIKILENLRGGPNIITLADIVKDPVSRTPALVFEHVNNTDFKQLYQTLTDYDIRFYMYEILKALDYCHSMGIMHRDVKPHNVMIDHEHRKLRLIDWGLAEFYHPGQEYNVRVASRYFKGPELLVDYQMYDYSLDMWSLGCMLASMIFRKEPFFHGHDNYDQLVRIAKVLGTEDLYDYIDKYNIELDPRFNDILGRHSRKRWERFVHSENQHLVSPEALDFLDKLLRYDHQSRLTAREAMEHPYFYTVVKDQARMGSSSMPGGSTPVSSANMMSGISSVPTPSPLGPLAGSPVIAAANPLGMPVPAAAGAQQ
# T1 sequence (P67870 whole entry partner): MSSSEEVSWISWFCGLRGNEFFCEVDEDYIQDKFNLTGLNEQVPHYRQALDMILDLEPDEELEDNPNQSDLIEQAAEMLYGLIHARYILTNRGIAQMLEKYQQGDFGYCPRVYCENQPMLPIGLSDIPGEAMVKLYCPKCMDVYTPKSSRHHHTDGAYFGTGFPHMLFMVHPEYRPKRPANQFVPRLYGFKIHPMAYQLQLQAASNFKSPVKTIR
# Protocol: CK2 Kinase Assay was conducted using the protocol as described in Pierre F. et al; J. Med. Chem. 2011, 54, 635-654. The tested compounds in aqueous solution were added at a volume of 10 μL to a reaction mixture comprising 10 μL of assay dilution buffer (ADB; 20 mM MOPS, pH 7.2, 25 mM β-glycerol phosphate, 5 mM EGTA, 1 mM sodium orthovanadate, and 1 mM dithiothreitol), 10 μL of substrate peptide (RRRDDDSDDD, dissolved in ADB at a concentration of 1 mM), 10 μL of recombinant human CK2 (RRββ-holoenzyme, 25 ng dissolved in ADB; Millipore). Reactions were initiated by the addition of 10 μL of ATP solution (90% 75 mMMgCl2, 75 μM ATP (final ATP concentration: 15 μM) dissolved in ADB; 10% [γ-33P] ATP (stock 1mCi/100 μL; 3000 Ci/mmol (Perkin-Elmer) and maintained for 10 min at 30° C. The reactions were quenched with 100 μL of 0.75% phosphoric acid and then transferred to and filtered through a phosphor cellulose filter plate (Millipore). After washing each well five times with 0.75% phosphoric acid, the plate was dried under vacuum for 5 min and, following the addition of 15 μL of scintillation fluid to each well, the residual radioactivity was measured using a Wallac luminescence counter. The IC50 values were derived from eight concentrations of test inhibitors.
structure (smiles),measurement,setting,value
"Clc1cccc(Nc2c3ccncc3nc3c2nn2cnccc32)c1 [Compound 1, N-(3-chlorophenyl)pyrimido[1′,6′:1,5]pyrazolo[4,3-b][1,7]naphthyridin-10-amine]",IC50,PC3 (prostate),1.5 µM
same,IC50,HCT116 (colon),1.3 µM
same,IC50,A375 (melanoma),3.2 µM
same,IC50,H1299 (lung),2.9 µM
same,IC50,MIAPaCa-2 (pancreas),1.2 µM
same,IC50,HL60 (leukemia),2.7 µM
same,IC50,MCF7 (breast),6.5 µM
same,IC50,MDA-MB-231 (breast),5.1 µM
same,IC50,[1],0.092 µM
